Measured values taken from patent publication US8940720B2, “Macrocycles as factor XIa inhibitors” (Bristol-Myers Squibb Company, priority 2010, dated 2015).
Like-named read-outs stand apart in the source and are kept apart here.

What was measured:
[1] = from C=CCCC(=O)Nc1cc(NC(=O)OC)ccc1-c1nnc(Cl)cc1C(CC=C)NC(=O)OC(C)(C)C; rcm bond; 12-membered ring; Grubbs II (0.3 eq); DCM; 6.6 mM

`CC(C)(C)OC(=O)N[C@H]1CC=CCCCc2ccccc2-c2cn(COCC[Si](C)(C)C)c1n2` showed a ring closure, yield of all isomers (from C=CCCCc1ccccc1-c1cn(COCC[Si](C)(C)C)c([C@H](CC=C)NC(=O)OC(C)(C)C)n1, rcm bond, Grubbs II, DCM, 0.97 mM, 40.0 °C, 1.0 h) of 62.9%.
Work on `CC(C)(C)OC(=O)N[C@H]1CC=CCCOc2ccccc2-c2cn(COCC[Si](C)(C)C)c1n2` yielded a ring closure, yield of all isomers (from C=CCCOc1ccccc1-c1cn(COCC[Si](C)(C)C)c([C@H](CC=C)NC(=O)OC(C)(C)C)n1, rcm bond, Grubbs II, DCM, 1.02 mM, 40.0 °C, 1.0 h) of 29%.
Compound `COC(=O)Nc1ccc2c(c1)CCCN(C)C(=O)C[C@H](NC(=O)OC(C)(C)C)c1nc-2cn1COCC[Si](C)(C)C` has a ring closure, yield of all isomers (from CNCCCc1cc(NC(=O)OC)ccc1-c1cn(COCC[Si](C)(C)C)c([C@H](CC(=O)O)NC(=O)OC(C)(C)C)n1, amide bond, BOP, DCM, 8.64 mM, 25.0 °C, 2.0 h) of 39.4%.
`COC(=O)Nc1ccc2c(c1)NC(=O)CC/C=C/CC(NC(=O)OC(C)(C)C)c1cc(Cl)nnc1-2` (stereo not shown) gave a ring closure, isolated yield [1] of 56% and a ring closure, yield of all isomers (from C=CCCC(=O)Nc1cc(NC(=O)OC)ccc1-c1nnc(Cl)cc1C(CC=C)NC(=O)OC(C)(C)C, rcm bond, Grubbs II, DCM, 6.6 mM, 40.0 °C, 1.0 h) of 56%.
`COC(=O)Nc1ccc2c(c1)NC(=O)CCC(C)=CC[C@H](NC(=O)OC(C)(C)C)c1nc-2cn1COCC[Si](C)(C)C` gave a ring closure, yield of all isomers (from C=CC[C@H](NC(=O)OC(C)(C)C)c1nc(-c2ccc(NC(=O)OC)cc2NC(=O)CCC(=C)C)cn1COCC[Si](C)(C)C, rcm bond, Grubbs II, DCE, 105.0 mM, 120.0 °C, 0.33 h) of 34.6%.
`COC(=O)Nc1ccc2c(c1)NC(=O)CCN(C(=O)OC(C)(C)C)C[C@H](NC(=O)OCc1ccccc1)c1nc-2cn1COCC[Si](C)(C)C` gave a ring closure, yield of all isomers (from COC(=O)Nc1ccc(-c2cn(COCC[Si](C)(C)C)c([C@H](CN(CCC(=O)O)C(=O)OC(C)(C)C)NC(=O)OCc3ccccc3)n2)c(N)c1, amide bond, BOP, DCM, 0.93 mM, 25.0 °C, 5.0 h) of 87%.
In the case of `COC(=O)Nc1ccc2c(c1)N[C@@H](C(=O)OC)CC=CC[C@H](NC(=O)OC(C)(C)C)c1nc-2cn1COCC[Si](C)(C)C`, the ring closure, yield of all isomers (from C=CC[C@H](NC(=O)OC(C)(C)C)c1nc(-c2ccc(NC(=O)OC)cc2N[C@H](CC=C)C(=O)OC)cn1COCC[Si](C)(C)C, rcm bond, Grubbs II, DCE, 40.0 mM, 120.0 °C, 0.33 h) is reported as 30%.
Compound `COC(=O)c1ccc2c(c1)OCCNC(=O)CC(NC(=O)OC(C)(C)C)c1cc-2nnc1Cl` (stereo not shown) has a ring closure, yield of all isomers (from COC(=O)c1ccc(-c2cc(C(CC(=O)O)NC(=O)OC(C)(C)C)c(Cl)nn2)c(OCCN)c1, amide bond, BOP, DCM, 1.28 mM, 25.0 °C, 2.5 h) of 15.3%.
`CC(C)(C)OC(=O)N[C@H]1CC=CCCC(=O)Nc2ccccc2C2=NN=C1O2` (mixture of isomers) showed a ring closure, yield of all isomers (from C=CCCC(=O)Nc1ccccc1-c1nnc([C@H](CC=C)NC(=O)OC(C)(C)C)o1, rcm bond, Grubbs II, DCM, 4.8 mM, 75.0 °C, 1.5 h) of 27%.
